The term IC50 denotes the concentration that gives 50% inhibition.

The values that follow come from patent US9024017B2, “Octahydro-cyclopentapyrrolyl antagonists of CCR2” (Janssen Pharmaceutica NV, priority 2012, dated 2015).

The target in this assay is T1, CCR2 (Homo sapiens, UniProt P41597).
T1 construct: host or cells: THP-1 (human monocytic cell line)
The assay can be described thus: MCP-1 Receptor Binding Assay in THP-1 Cells. Particulars: read-out: MCP1B_v3 IC50. In outline: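 Human monocytic THP-1 cells incubated 2 h at 30 °C with 0.5 nM 125I-MCP-1 and varying concentrations of test compound or unlabelled MCP-1. Cells filter-harvested and counted by scintillation; blank subtracted, compared with vehicle; nonspecific binding with 1 μM cold MCP-1.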

T1 sequence (P41597 whole entry): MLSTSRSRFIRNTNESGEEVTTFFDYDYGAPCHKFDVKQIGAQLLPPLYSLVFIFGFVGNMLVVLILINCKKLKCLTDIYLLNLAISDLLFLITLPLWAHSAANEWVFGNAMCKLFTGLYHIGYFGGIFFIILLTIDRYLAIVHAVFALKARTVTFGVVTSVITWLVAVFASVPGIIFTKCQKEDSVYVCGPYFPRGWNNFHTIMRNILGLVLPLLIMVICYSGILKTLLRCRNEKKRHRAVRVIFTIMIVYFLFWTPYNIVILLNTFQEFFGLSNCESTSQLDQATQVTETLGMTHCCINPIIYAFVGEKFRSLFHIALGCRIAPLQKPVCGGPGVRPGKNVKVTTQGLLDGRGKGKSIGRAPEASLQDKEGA

Turning to `COC1COCCC1N[C@@H]1C[C@H]2CN(C(=O)OCCC3CCOCC3)C[C@@]2(C(=O)N2CCc3ncc(C(F)(F)F)cc3C2)C1` (relative stereo) [Example 42, (3aR,5R,6aR)-2-(Tetrahydro-2H-pyran-4-yl)ethyl 5-(((3S*,4S*)-3-methoxytetrahydro-2H-pyran-4-yl)amino)-3a-(3-(trifluoromethyl)-5,6,7,8-tetrahydro-1,6-naphthyridine-6-carbonyl)hexahydrocyclopenta[c]pyrrole-2(1H)-carboxylate], the IC50 worked out at 30 nM.

For the compound `COC1COCCC1N[C@@H]1C[C@H]2CN(C(=O)OCCN3CCCC3)C[C@@]2(C(=O)N2CCc3ncc(C(F)(F)F)cc3C2)C1` (relative stereo) [Example 45, (3aR,5R,6aR)-2-(Pyrrolidin-1-yl)ethyl 5-(((3S*,4S*)-3-methoxytetrahydro-2H-pyran-4-yl)amino)-3a-(3-(trifluoromethyl)-5,6,7,8-tetrahydro-1,6-naphthyridine-6-carbonyl)hexahydrocyclopenta[c]pyrrole-2(1H)-carboxyl], the IC50 came to 70 nM.

As for `COC1COCCC1N[C@@H]1C[C@H]2CN(C(=O)OCCN3CCCC3)C[C@@]2(C(=O)N2CCc3ccc(C(F)(F)F)cc3C2)C1` (relative stereo) [Example 46, (3aR,5R,6aR)-2-(Pyrrolidin-1-yl)ethyl 5-(((3S*,4S*)-3-methoxytetrahydro-2H-pyran-4-yl)amino)-3a-(7-(trifluoromethyl)-1,2,3,4-tetrahydroisoquinoline-2-carbonyl)hexahydrocyclopenta[c]pyrrole-2(1H)-carboxylate], the IC50 turned out to be 30 nM.

In the case of `COC1COCCC1N[C@@H]1C[C@H]2CN(C(=O)OCC3CCOCC3)C[C@@]2(C(=O)N2CCc3ncc(C(F)(F)F)cc3C2)C1` (relative stereo) [Example 47, (3aR,5R,6aR)-(Tetrahydro-2H-pyran-4-yl)methyl 5-(((3S*,4S*)-3-methoxytetrahydro-2H-pyran-4-yl)amino)-3a-(3-(trifluoromethyl)-5,6,7,8-tetrahydro-1,6-naphthyridine-6-carbonyl)hexahydrocyclopenta[c]pyrrole-2(1H)-carboxylate], the IC50 turned out to be 30 nM.

Consider `COCCOC(=O)N1C[C@@H]2C[C@@H](NC3CCOCC3OC)C[C@]2(C(=O)N2CCc3ncc(C(F)(F)F)cc3C2)C1` (relative stereo) [Example 48, (3aR,5R,6aR)-2-Methoxyethyl 5-(((3S*,4S*)-3-methoxytetrahydro-2H-pyran-4-yl)amino)-3a-(3-(trifluoromethyl)-5,6,7,8-tetrahydro-1,6-naphthyridine-6-carbonyl)hexahydrocyclopenta[c]pyrrole-2(1H)-carboxylate], for which the IC50 amounted to 80 nM.

As for `COCCOC(=O)N1C[C@@H]2C[C@@H](NC3CCOCC3OC)C[C@]2(C(=O)N2CCc3ccc(C(F)(F)F)cc3C2)C1` (relative stereo) [Example 49, (3aR,5R,6aR)-2-Methoxyethyl 5-(((3S*,4S*)-3-methoxytetrahydro-2H-pyran-4-yl)amino)-3a-(7-(trifluoromethyl)-1,2,3,4-tetrahydroisoquinoline-2-carbonyl)hexahydrocyclopenta[c]pyrrole-2(1H)-carboxylate], the IC50 worked out at 10 nM.

Turning to `COC1COCCC1N[C@@H]1C[C@H]2CN(C(=O)OCCC(C)(C)O)C[C@@]2(C(=O)N2CCc3ccc(OC(F)(F)F)cc3C2)C1` (relative stereo) [Example 50, (3aR,5R,6aR)-3-Hydroxy-3-methylbutyl 5-(((3S*,4S*)-3-methoxytetrahydro-2H-pyran-4-yl)amino)-3a-(7-(trifluoromethoxy)-1,2,3,4-tetrahydroisoquinoline-2-carbonyl)hexahydrocyclopenta[c]pyrrole-2(1H)-carboxylate], the IC50 worked out at 30 nM.

Take `COC1COCCC1N[C@@H]1C[C@H]2CN(C(=O)OCCC(F)(F)F)C[C@@]2(C(=O)N2CCc3ncc(C(F)(F)F)cc3C2)C1` (relative stereo) [Example 51, (3aR,5R,6aR)-3,3,3-Trifluoropropyl 5-(((3S*,4S*)-3-methoxytetrahydro-2H-pyran-4-yl)amino)-3a-(3-(trifluoromethyl)-5,6,7,8-tetrahydro-1,6-naphthyridine-6-carbonyl)hexahydrocyclo-penta[c]pyrrole-2(1H)-carboxylate]: the 50% inhibitory concentration (IC50) turned out to be 140 nM.

On to `COC1COCCC1N[C@@H]1C[C@H]2CN(C(=O)OCCC#N)C[C@@]2(C(=O)N2CCc3ncc(C(F)(F)F)cc3C2)C1` (relative stereo) [Example 52, (3aR,5R,6aR)-2-Cyanoethyl 5-(((3S*,4S*)-3-methoxytetrahydro-2H-pyran-4-yl)amino)-3a-(3-(trifluoromethyl)-5,6,7,8-tetrahydro-1,6-naphthyridine-6-carbonyl)hexahydrocyclopenta[c]pyrrole-2(1H)-carboxylate], for which the IC50 stood at 130 nM.

`C#CCOC(=O)N1C[C@@H]2C[C@@H](NC3CCOCC3OC)C[C@]2(C(=O)N2CCc3ncc(C(F)(F)F)cc3C2)C1` (relative stereo) [Example 53, (3aR,5R,6aR)-Prop-2-yn-1-yl 5-(((3S*,4S*)-3-methoxytetrahydro-2H-pyran-4-yl)amino)-3a-(3-(trifluoromethyl)-5,6,7,8-tetrahydro-1,6-naphthyridine-6-carbonyl)hexahydrocyclopenta[c]pyrrole-2(1H)-carboxylate]: the IC50 amounted to 200 nM.

For `COC1COCCC1N[C@@H]1C[C@H]2CN(C(=O)OCCN(C)C)C[C@@]2(C(=O)N2CCc3ncc(C(F)(F)F)cc3C2)C1` (relative stereo) [Example 54, (3aR,5R,6aR)-2-(Dimethylamino)ethyl 5-(((3S*,4S*)-3-methoxytetrahydro-2H-pyran-4-yl)amino)-3a-(3-(trifluoromethyl)-5,6,7,8-tetrahydro-1,6-naphthyridine-6-carbonyl)-hexahydrocyclopenta[c]pyrrole-2(1H)-carboxylate], the IC50 amounted to 150 nM.

Turning to `COC1COCCC1N[C@@H]1C[C@H]2CN(C(=O)OCCNC(C)=O)C[C@@]2(C(=O)N2CCc3ccc(C(F)(F)F)cc3C2)C1` (relative stereo) [Example 55, (3aR,5R,6aR)-2-Acetamidoethyl 5-(((3S*,4S*)-3-methoxytetrahydro-2H-pyran-4-yl)amino)-3a-(7-(trifluoromethyl)-1,2,3,4-tetrahydroisoquinoline-2-carbonyl)hexahydrocyclopenta[c]pyrrole-2(1H)-carboxylate], the half-inhibitory concentration (IC50) came to 10 nM.

As for `COC1COCCC1N[C@@H]1C[C@H]2CN(C(=O)OCc3ccccc3)C[C@@]2(C(=O)N2CCc3ncc(C(F)(F)F)cc3C2)C1` (relative stereo) [Example 56, (3aR,5R,6aR)-Benzyl 5-(((3S*,4S*)-3-methoxytetrahydro-2H-pyran-4-yl)amino)-3a-(3-(trifluoromethyl)-5,6,7,8-tetrahydro-1,6-naphthyridine-6-carbonyl)hexahydrocyclopenta[c]pyrrole-2(1H)-carboxylate], the IC50 stood at 120 nM.

In the case of `CNC(=S)N(C1CCOCC1OC)[C@@H]1C[C@H]2CN(C(=O)OCc3ccccc3)C[C@@]2(C(=O)N2CCc3ncc(C(F)(F)F)cc3C2)C1` (relative stereo) [Example 57, (3aR,5R,6aR)-Benzyl 5-(1-((3S*,4S*)-3-methoxytetrahydro-2H-pyran-4-yl)-3-methylthioureido)-3a-(3-(trifluoromethyl)-5,6,7,8-tetrahydro-1,6-naphthyridine-6-carbonyl)hexahydrocyclopenta[c]pyrrole-2(1H)-carboxylate], the 50% inhibitory concentration (IC50) turned out to be 2030 nM.

For `COC1COCCC1N[C@@H]1C[C@H]2CN(C(=O)OCc3ccc(C#N)cc3)C[C@@]2(C(=O)N2CCc3ncc(C(F)(F)F)cc3C2)C1` (relative stereo) [Example 58, (3aR,5R,6aR)-4-Cyanobenzyl 5-(((3S*,4S*)-3-methoxytetrahydro-2H-pyran-4-yl)amino)-3a-(3-(trifluoromethyl)-5,6,7,8-tetrahydro-1,6-naphthyridine-6-carbonyl)hexahydrocyclopenta-[c]pyrrole-2(1H)-carboxylate], the half-inhibitory concentration (IC50) amounted to 200 nM.

Take `COc1cccc(COC(=O)N2C[C@@H]3C[C@@H](NC4CCOCC4OC)C[C@]3(C(=O)N3CCc4ncc(C(F)(F)F)cc4C3)C2)c1` (relative stereo) [Example 60, (3aR,5R,6aR)-3-Methoxybenzyl 5-(((3S*,4S*)-3-methoxytetrahydro-2H-pyran-4-yl)amino)-3a-(3-(trifluoromethyl)-5,6,7,8-tetrahydro-1,6-naphthyridine-6-carbonyl)hexahydrocyclopenta-[c]pyrrole-2(1H)-carboxylate]: the half-inhibitory concentration (IC50) is 100 nM.

As for `COc1ccc(COC(=O)N2C[C@@H]3C[C@@H](NC4CCOCC4OC)C[C@]3(C(=O)N3CCc4ncc(C(F)(F)F)cc4C3)C2)cc1` (relative stereo) [Example 61, (3aR,5R,6aR)-4-Methoxybenzyl 5-(((3S*,4S*)-3-methoxytetrahydro-2H-pyran-4-yl)amino)-3a-(3-(trifluoromethyl)-5,6,7,8-tetrahydro-1,6-naphthyridine-6-carbonyl)hexahydrocyclopenta-[c]pyrrole-2(1H)-carboxylate], the IC50 was 390 nM.

Take `COC1COCCC1N[C@@H]1C[C@H]2CN(C(=O)OCCC(C)(C)O)C[C@@]2(C(=O)N2CCc3ncc(C(F)(F)F)cc3C2)C1` (relative stereo) [Example 62, (3aR,5R,6aR)-3-Hydroxy-3-methylbutyl 5-(((3S*,4S*)-3-methoxytetrahydro-2H-pyran-4-yl)amino)-3a-(3-(trifluoromethyl)-5,6,7,8-tetrahydro-1,6-naphthyridine-6-carbonyl)-hexahydrocyclopenta[c]pyrrole-2(1H)-carboxylate]: the concentration for half-maximal inhibition (IC50) was 60 nM.

As to `COC1COCCC1N[C@@H]1C[C@H]2CN(C(=O)OCCNC(C)=O)C[C@@]2(C(=O)N2CCc3ncc(C(F)(F)F)cc3C2)C1` (relative stereo) [Example 63, (3aR,5R,6aR)-2-Acetamidoethyl 5-(((3S*,4S*)-3-methoxytetrahydro-2H-pyran-4-yl)amino)-3a-(3-(trifluoromethyl)-5,6,7,8-tetrahydro-1,6-naphthyridine-6-carbonyl)hexahydrocyclopenta[c]pyrrole-2(1H)-carboxylate], the IC50 is 50 nM.
